Laboratory results as given in patent EP0620225B1, “Cephalosporin derivatives” (Basilea Pharmaceutica AG, priority 1993, dated 1994).
Values after ≈ are worked out from the molar mass of the structure shown. Each block holds one compound with its values, some of them ahead of it.

Experiments:
S.viridans group = assay: In vitro activity against selected species (MIC50, MIC90, range); assay type: cell-based; conditions: Streptococcus viridans
Escherichia coli 25922 = assay: Efficacy against systemic infections (septicemia) in mice; assay type: in vivo; conditions: 96 h, Escherichia coli 25922, po (orally) 1 and 3 h after challenge, survival day 4
Protocol: Septicemia was induced in outbred Swiss albino mice (Jbm MoRo [specific pathogen free]; weight 16 to 20 g, Biomedical Research Laboratories, Füllinsdorf, Switzerland). Mice were infected by intraperitoneal injection of diluted overnight cultures of the test organisms. Bacterial challenge doses were 4-10 times the number of organisms required to kill 50% of untreated animals within 48 h. The test compounds were administered p.o. or s.c. 1 and 3 h after the bacterial challenge. To treat the infection with Pseudomonas aeruginosa BA an additional dose was given 5 h after challenge. Control and treatment groups at each dose were composed of five mice each. The 50% effective dose (ED50, in milligrams per kilogram) was calculated by probit analysis as described by Finney (Finney, D.J. 1978, Statistical method in biological assay, 3rd ed. Charles Griffin & Co., Ltd., London), from the survival rates on day 4 after infection.

S.pyogenes B15 = assay: Antibacterial spectrum (MIC), agar dilution; assay type: cell-based; conditions: Streptococcus pyogenes, read-out: MIC
Protocol: (§1) In vitro activity was determined by minimum inhibitory concentration in a microorganism spectum by the agar dilution method in Mueller Hinton agar.

E.cloacae 908R = assay: Antibacterial spectrum (MIC), agar dilution; assay type: cell-based; conditions: Enterobacter cloacae, read-out: MIC
Protocol: as §1

M.morganii 6H-137 = assay: Antibacterial spectrum (MIC), agar dilution; assay type: cell-based; conditions: Morganella morganii, 6H137, read-out: MIC
Protocol: as §1

M.catarrhalis RA21 = assay: Antibacterial spectrum (MIC), agar dilution; assay type: cell-based; conditions: Moraxella catarrhalis, read-out: MIC
Protocol: as §1

C.freundii 43 = assay: Antibacterial spectrum (MIC), agar dilution; assay type: cell-based; conditions: Citrobacter freundii, read-out: MIC
Protocol: as §1

Acinetobacter sp.51-156 = assay: Antibacterial spectrum (MIC), agar dilution; assay type: cell-based; conditions: SP.51156, read-out: MIC
Protocol: as §1

P.vulgaris 1028 = assay: Antibacterial spectrum (MIC), agar dilution; assay type: cell-based; conditions: Proteus vulgaris, read-out: MIC
Protocol: as §1

E.cloacae 908SSi = assay: Antibacterial spectrum (MIC), agar dilution; assay type: cell-based; conditions: Enterobacter cloacae, read-out: MIC
Protocol: as §1

P.aeruginosa 27853 = assay: Antibacterial spectrum (MIC), agar dilution; assay type: cell-based; conditions: Pseudomonas aeruginosa, read-out: MIC
Protocol: as §1

N.meningitidis 69480 = assay: Antibacterial spectrum (MIC), agar dilution; assay type: cell-based; conditions: Neisseria meningitidis, read-out: MIC
Protocol: as §1

S.pneumoniae Q19 = assay: Antibacterial spectrum (MIC), agar dilution; assay type: cell-based; conditions: Streptococcus pneumoniae, read-out: MIC
Protocol: as §1

H.influenzae 1 = assay: Antibacterial spectrum (MIC), agar dilution; assay type: cell-based; conditions: Haemophilus influenzae, read-out: MIC
Protocol: as §1

S.marcescens 69438 = assay: Antibacterial spectrum (MIC), agar dilution; assay type: cell-based; conditions: Serratia marcescens, read-out: MIC
Protocol: as §1

E.coli 25922 = assay: Antibacterial spectrum (MIC), agar dilution; assay type: cell-based; conditions: Escherichia coli, read-out: MIC
Protocol: as §1

K.pneumoniae 418 = assay: Antibacterial spectrum (MIC), agar dilution; assay type: cell-based; conditions: Klebsiella pneumoniae, read-out: MIC
Protocol: as §1

S.aureus 6538 = assay: Antibacterial spectrum (MIC), agar dilution; assay type: cell-based; conditions: Staphylococcus aureus, read-out: MIC
Protocol: as §1

P.mirabilis 2117 = assay: Antibacterial spectrum (MIC), agar dilution; assay type: cell-based; conditions: Proteus mirabilis, read-out: MIC
Protocol: as §1

C.freundii 902 = assay: Antibacterial spectrum (MIC), agar dilution; assay type: cell-based; conditions: Citrobacter freundii, read-out: MIC
Protocol: as §1

S.viridans group 016 = assay: Antibacterial spectrum (MIC), agar dilution; assay type: cell-based; conditions: Streptococcus viridans, read-out: MIC
Protocol: as §1

E.faecalis 6 = assay: Antibacterial spectrum (MIC), agar dilution; assay type: cell-based; conditions: Enterococcus faecalis, read-out: MIC
Protocol: as §1

X.maltophilia 1AC739 = assay: Antibacterial spectrum (MIC), agar dilution; assay type: cell-based; conditions: Stenotrophomonas maltophilia, read-out: MIC
Protocol: as §1

S.agalactiae QK44 = assay: Antibacterial spectrum (MIC), agar dilution; assay type: cell-based; conditions: Streptococcus agalactiae, read-out: MIC
Protocol: as §1

S.aureus 734 MRSA = assay: Antibacterial spectrum (MIC), agar dilution; assay type: cell-based; conditions: Staphylococcus aureus, read-out: MIC
Protocol: as §1

S.aureus MSSA = assay: In vitro activity against selected species (MIC50, MIC90, range); assay type: cell-based; conditions: Staphylococcus aureus, medium MHB (Mueller Hinton Broth)
E.faecium = assay: In vitro activity against selected species (MIC50, range); assay type: cell-based; conditions: Enterococcus faecium, medium MHA
Protocol: as §1

S.pneumoniae PEN-R = assay: In vitro activity against selected species (MIC50, MIC90, range); assay type: cell-based; conditions: Streptococcus pneumoniae; for MIC: MIC range
E.faecalis [1] = assay: as above; assay type: cell-based; conditions: Enterococcus faecalis, medium IsoB
M.catarrhalis = assay: as above; assay type: cell-based; conditions: Moraxella catarrhalis, medium IsoB
S.aureus MRSA = assay: as above; assay type: cell-based; conditions: Staphylococcus aureus, medium MHA (Mueller Hinton Agar) +NaCl
Protocol: as §1

E.faecalis [2] = assay: as above; assay type: cell-based; conditions: Enterococcus faecalis, medium MHA
Protocol: as §1

L.monocytogenes BK23 = assay: Antibacterial spectrum (MIC), agar dilution; assay type: cell-based; conditions: Listeria monocytogenes, read-out: MIC
Protocol: as §1

[3] = medium IsoB (Isosensitest Broth)

MIC50 (S.viridans group): 2 µg/mL (≈ 3.84 µM)
MIC90 (S.viridans group): 4 µg/mL (≈ 7.68 µM)
MIC (S.viridans group; MIC range): 0.12 to 8 µg/mL (≈ 0.231 to 15.4 µM)
MIC (S.pyogenes B15): < 0.06 µg/mL
MIC (E.cloacae 908R): 8 µg/mL (≈ 15.4 µM)
MIC (M.morganii 6H-137): 0.25 µg/mL (≈ 0.48 µM)
MIC (M.catarrhalis RA21): 16 µg/mL (≈ 30.7 µM)
MIC (C.freundii 43): 4 µg/mL (≈ 7.68 µM)
MIC (Acinetobacter sp.51-156): > 32 µg/mL
MIC (P.vulgaris 1028): 0.5 µg/mL (≈ 0.96 µM)
MIC (E.cloacae 908SSi): 2 µg/mL (≈ 3.84 µM)
MIC (P.aeruginosa 27853): > 32 µg/mL
MIC (N.meningitidis 69480): 0.12 µg/mL (≈ 0.231 µM)
MIC (S.pneumoniae Q19): 0.12 µg/mL (≈ 0.231 µM)
MIC (H.influenzae 1): 0.25 µg/mL (≈ 0.48 µM)
MIC (S.marcescens 69438): 1 µg/mL (≈ 1.92 µM)
MIC (E.coli 25922): 0.5 µg/mL (≈ 0.96 µM)
MIC (K.pneumoniae 418): 1 µg/mL (≈ 1.92 µM)
MIC (S.aureus 6538): 1 µg/mL (≈ 1.92 µM)
MIC (P.mirabilis 2117): 0.12 µg/mL (≈ 0.231 µM)
MIC (C.freundii 902): 0.5 µg/mL (≈ 0.96 µM)
MIC (S.viridans group 016): 1 µg/mL (≈ 1.92 µM)
MIC (E.faecalis 6): 2 µg/mL (≈ 3.84 µM)
MIC (X.maltophilia 1AC739): > 32 µg/mL
MIC (S.agalactiae QK44): 0.25 µg/mL (≈ 0.48 µM)
MIC (S.aureus 734 MRSA): 16 µg/mL (≈ 30.7 µM)
MIC (S.aureus MSSA; MIC range): 0.5 to 2 µg/mL (≈ 0.96 to 3.84 µM)
MIC50 (S.aureus MSSA): 1 µg/mL (≈ 1.92 µM)
MIC90 (S.aureus MSSA): 2 µg/mL (≈ 3.84 µM)
MIC (E.faecium; MIC range): 2 to 32 µg/mL (≈ 3.84 to 61.5 µM)
MIC50 (E.faecium): 4 µg/mL (≈ 7.68 µM)
MIC (S.pneumoniae PEN-R; [3]): 0.12 to 0.5 µg/mL (≈ 0.231 to 0.96 µM)
MIC (S.pneumoniae PEN-R; medium IsoB + 20% serum): 0.1 to 1 µg/mL
MIC50 (S.pneumoniae PEN-R; [3]): 0.25 µg/mL (≈ 0.48 µM)
MIC90 (S.pneumoniae PEN-R; [3]): 0.5 µg/mL (≈ 0.96 µM)
MIC50 (S.pneumoniae PEN-R; medium IsoB + 20% serum): 0.5 µg/mL
MIC (E.faecalis [1]; MIC range): 0.5 to 4 µg/mL (≈ 0.96 to 7.68 µM)
MIC50 (E.faecalis [1]): 2 µg/mL (≈ 3.84 µM)
MIC90 (E.faecalis [1]): 2 µg/mL (≈ 3.84 µM)
MIC (M.catarrhalis; MIC range): 2 to 32 µg/mL (≈ 3.84 to 61.5 µM)
MIC50 (M.catarrhalis): 8 µg/mL (≈ 15.4 µM)
MIC90 (M.catarrhalis): 16 µg/mL (≈ 30.7 µM)
MIC (S.aureus MRSA; MIC range): 16 to 32 µg/mL (≈ 30.7 to 61.5 µM)
MIC50 (S.aureus MRSA): 32 µg/mL (≈ 61.5 µM)
MIC90 (S.aureus MRSA): 32 µg/mL (≈ 61.5 µM)
MIC (E.faecalis [2]; MIC range): 1 to 8 µg/mL (≈ 1.92 to 15.4 µM)
MIC50 (E.faecalis [2]): 2 µg/mL (≈ 3.84 µM)
MIC90 (E.faecalis [2]): 4 µg/mL (≈ 7.68 µM)
Structure (SMILES): CC(C)(C)N1CC/C(=C\C2=C(C(=O)O)N3C(=O)[C@@H](NC(=O)/C(=N\O)c4csc(N)n4)[C@H]3SC2)C1=O [J]
ED50 (Escherichia coli 25922): > 2 mg/kg

MIC (S.pyogenes B15): ≤ 0.06 µg/mL
MIC (E.cloacae 908R): 8 µg/mL (≈ 15.4 µM)
MIC (M.morganii 6H-137): ≤ 0.06 µg/mL
MIC (M.catarrhalis RA21): 8 µg/mL (≈ 15.4 µM)
MIC (C.freundii 43): 4 µg/mL (≈ 7.71 µM)
MIC (Acinetobacter sp.51-156): 16 µg/mL (≈ 30.9 µM)
MIC (P.vulgaris 1028): 0.25 µg/mL (≈ 0.482 µM)
MIC (E.cloacae 908SSi): 1 µg/mL (≈ 1.93 µM)
MIC (P.aeruginosa 27853): 16 µg/mL (≈ 30.9 µM)
MIC (N.meningitidis 69480): 0.25 µg/mL (≈ 0.482 µM)
MIC (S.pneumoniae Q19): ≤ 0.06 µg/mL
MIC (H.influenzae 1): 0.25 µg/mL (≈ 0.482 µM)
MIC (S.marcescens 69438): 0.5 µg/mL (≈ 0.964 µM)
MIC (E.coli 25922): ≤ 0.06 µg/mL
MIC (K.pneumoniae 418): 0.12 µg/mL (≈ 0.231 µM)
MIC (S.aureus 6538): 0.5 µg/mL (≈ 0.964 µM)
MIC (P.mirabilis 2117): ≤ 0.06 µg/mL
MIC (C.freundii 902): 0.12 µg/mL (≈ 0.231 µM)
MIC (L.monocytogenes BK23): 4 µg/mL (≈ 7.71 µM)
MIC (S.viridans group 016): 1 µg/mL (≈ 1.93 µM)
MIC (E.faecalis 6): 1 µg/mL (≈ 1.93 µM)
MIC (X.maltophilia 1AC739): > 32 µg/mL
MIC (S.agalactiae QK44): 0.5 µg/mL (≈ 0.964 µM)
MIC (S.aureus 734 MRSA): 8 µg/mL (≈ 15.4 µM)
Structure (SMILES): Nc1nc(/C(=N/O)C(=O)N[C@@H]2C(=O)N3C(C(=O)O)=C(/C=C4\CCN(CC5CC5)C4=O)CS[C@H]23)cs1 [N, [6R-[3(E),6α,7β(Z)]]-7-[[(2-Amino-4-thiazolyl)(hydroxyimino)acetyl]-amino]-3-[[1-cyclopropylmethyl-2-oxo-3-pyrrolidinylidene]methyl]-8-oxo-5-thia-1-azabicyclo[4.2.0]oct-2-ene-2-carboxylic acid]

MIC (S.pyogenes B15): ≤ 0.06 µg/mL
MIC (E.cloacae 908R): 16 µg/mL (≈ 31.8 µM)
MIC (M.morganii 6H-137): ≤ 0.06 µg/mL
MIC (M.catarrhalis RA21): 4 µg/mL (≈ 7.96 µM)
MIC (C.freundii 43): 4 µg/mL (≈ 7.96 µM)
MIC (Acinetobacter sp.51-156): 16 µg/mL (≈ 31.8 µM)
MIC (P.vulgaris 1028): 8 µg/mL (≈ 15.9 µM)
MIC (E.cloacae 908SSi): 1 µg/mL (≈ 1.99 µM)
MIC (P.aeruginosa 27853): 8 µg/mL (≈ 15.9 µM)
MIC (N.meningitidis 69480): 0.25 µg/mL (≈ 0.497 µM)
MIC (S.pneumoniae Q19): ≤ 0.06 µg/mL
MIC (H.influenzae 1): 0.25 µg/mL (≈ 0.497 µM)
MIC (S.marcescens 69438): 1 µg/mL (≈ 1.99 µM)
MIC (E.coli 25922): ≤ 0.06 µg/mL
MIC (K.pneumoniae 418): 0.12 µg/mL (≈ 0.239 µM)
MIC (S.aureus 6538): 1 µg/mL (≈ 1.99 µM)
MIC (P.mirabilis 2117): ≤ 0.06 µg/mL
MIC (C.freundii 902): 0.12 µg/mL (≈ 0.239 µM)
MIC (L.monocytogenes BK23): 2 µg/mL (≈ 3.98 µM)
MIC (S.viridans group 016): 0.5 µg/mL (≈ 0.995 µM)
MIC (E.faecalis 6): 2 µg/mL (≈ 3.98 µM)
MIC (X.maltophilia 1AC739): > 32 µg/mL
MIC (S.agalactiae QK44): 0.25 µg/mL (≈ 0.497 µM)
MIC (S.aureus 734 MRSA): 4 µg/mL (≈ 7.96 µM)
Structure (SMILES): C#CCN1CC/C(=C\C2=C(C(=O)O)N3C(=O)[C@@H](NC(=O)/C(=N\O)c4csc(N)n4)[C@H]3SC2)C1=O [O, [6R-[3(E),6α,7β(Z)]]-7-[[(2-Amino-4-thiazolyl)(hydroxyimino)acetyl]-amino]-8-oxo-3-[[2-oxo-1-(2-propynyl)-3-pyrrolidinylidene]methyl]-5-thia-1-azabicyclo [4.2.0]-oct-2-ene-2-carboxylic acid]
